Assays:
[1] = Temperature dependence of Stokes luminescence intensity of dye in solution; type: physicochemical; conditions: for temperature-sensitive properties of Stokes luminescence: 10 μM dye, emission spectra at different temperatures
Protocol: (§1) Concentration of dye is 10 μM, and solvent is 150 mM KCl solution, pH 7.5; (d) Stokes emission spectra (excited at 530 nm) of 10 μM RhBME (dissolved in 150 mM KCl solution at pH 7.5) at different temperatures (from bottom to top, 45, 35, 25, 15, 5[…] respectively), and Stokes luminescence intensity is normalized against peak at 25[…].

[2] = literature [2, 3]; cited from earlier work
[3] = Temperature dependence of anti-Stokes luminescence intensity of dye in solution; type: physicochemical; conditions: 10 μM in 150 mM KCl pH 7.5, excited at 633 nm, 5-45 degrees
Protocol: as §1, with “anti-Stokes” for “Stokes”, “633” for “530”, “Rh101ME” for “RhBME”, “top” for “bottom”, “bottom,” for “top,”
From the spectrogram of Rh101 and derivatives thereof (FIG. 1a), it can be seen that there is no significant difference in spectroscopic characteristics between the compound of formula II (Rh101AM) or the compound of formula IV (Rh101ME) and Rh101.

[4] = literature [2, 3]; cited from earlier work; remark: listed apart in the source

CCN(CC)c1ccc2c(-c3ccccc3C(=O)OCc3ccc(C(=O)Nc4cc5cccnc5c5ncccc45)cc3)c3ccc(=[N+](CC)CC)cc-3oc2c1 [RPA, Rhodamine B-[(1,10-phenanthrolin-5-yl)aminocarbonyl]benzyl ester]
temperature-sensitive properties of Stokes luminescence [1]: possess temperature-sensitive properties

O=C(O)c1ccccc1C1=c2cc3c4c(c2Oc2c1cc1c5c2CCCN5CCC1)CCC[N+]=4CCC3 [Rh101, rhodamine 101]
Anti-Stokes emission intensity vs temperature [2]: enhanced as the temperature increases
anti-Stokes luminescence intensity vs temperature [3]: increases as the temperature increases
temperature-sensitive properties of Stokes luminescence [1]: does not possess temperature-sensitive properties

CC(=O)OCOC(=O)c1ccccc1C1=c2cc3c4c(c2Oc2c1cc1c5c2CCCN5CCC1)CCC[N+]=4CCC3 [Rh101AM]
Stokes luminescence intensity vs temperature [1]: does not substantially change as the temperature changes

N=c1ccc2c(-c3ccccc3C(=O)O)c3ccc(N)cc3oc-2c1 [Rh110]
temperature-sensitive properties of Stokes luminescence [1]: does not possess temperature-sensitive properties

N#CC1=c2cc3c4c(c2Oc2c1cc1c5c2CCCN5CCC1)CCC[N+]=4CCC3 [Rh800]
temperature-sensitive properties of Stokes luminescence [1]: does not possess temperature-sensitive properties at a wavelength of less than 700 nm

CCN(CC)c1ccc2c(-c3ccccc3C(=O)O)c3ccc(=[N+](CC)CC)cc-3oc2c1 [RhB, Rhodamine B]
Stokes emission intensity vs temperature [4]: decreased as the temperature increases

CCCCCCCCCCCCCCCCOC(=O)c1ccccc1-c1c2ccc(=[N+](CC)CC)cc-2oc2cc(N(CC)CC)ccc12 [RhB-C16]
temperature-sensitive properties of Stokes luminescence [1]: possesses temperature-sensitive properties

CCN(CC)c1ccc2c(-c3ccccc3C(=O)OCOC(C)=O)c3ccc(=[N+](CC)CC)cc-3oc2c1 [RhBAM]
Stokes luminescence intensity vs temperature [1]: decreases as the temperature increases

CCN(CC)c1ccc2c(-c3ccccc3C(=O)OC)c3ccc(N(CC)CC)cc3[o+]c2c1.[Cl-] [RhBME]
Stokes luminescence intensity vs temperature [1]: decreases as the temperature increases

tetramethylrhodamine methyl ester [TMRM]
temperature-sensitive properties of Stokes luminescence [1]: possess temperature-sensitive properties
